Patent US10456467B2, “Nanoparticle delivery system for targeted anti-obesity treatment” (UNIVERSITY OF WYOMING, priority 2014, dated 2019)

Columns and labels:
[1] = CAP release (dissolution) in pH 7.4 phosphate buffer, Vankel dissolution apparatus; assay type: physicochemical; conditions: 37° C.
From the text: The cumulative release (%) was plotted against time. Cumulative % Release=C1V1×CF/100×C2
C1=Concentration of capsaicin in the final solution (g/ml);
C2=Drug content (mgs) used for dissolution study;
CF=Correction Factor, which is an accommodation for the change in volume due to sampling; and
V1=Volume of dissolution medium (ml)

[2] = cited from earlier work
[3] = biological target: T1, TRPV1 channel protein (CAP receptor) (Homo sapiens, UniProt Q8NER1); assay: Fura-2 Ca2+ influx imaging in HEK293 cells expressing TRPV1; assay type: cell-based; conditions: 1 μM CAP or equivalent, 22 degrees Celsius, FIG. 4
T1 construct: expressed in transfected cells; host or cells: HEK293
T1 sequence (Q8NER1 whole entry): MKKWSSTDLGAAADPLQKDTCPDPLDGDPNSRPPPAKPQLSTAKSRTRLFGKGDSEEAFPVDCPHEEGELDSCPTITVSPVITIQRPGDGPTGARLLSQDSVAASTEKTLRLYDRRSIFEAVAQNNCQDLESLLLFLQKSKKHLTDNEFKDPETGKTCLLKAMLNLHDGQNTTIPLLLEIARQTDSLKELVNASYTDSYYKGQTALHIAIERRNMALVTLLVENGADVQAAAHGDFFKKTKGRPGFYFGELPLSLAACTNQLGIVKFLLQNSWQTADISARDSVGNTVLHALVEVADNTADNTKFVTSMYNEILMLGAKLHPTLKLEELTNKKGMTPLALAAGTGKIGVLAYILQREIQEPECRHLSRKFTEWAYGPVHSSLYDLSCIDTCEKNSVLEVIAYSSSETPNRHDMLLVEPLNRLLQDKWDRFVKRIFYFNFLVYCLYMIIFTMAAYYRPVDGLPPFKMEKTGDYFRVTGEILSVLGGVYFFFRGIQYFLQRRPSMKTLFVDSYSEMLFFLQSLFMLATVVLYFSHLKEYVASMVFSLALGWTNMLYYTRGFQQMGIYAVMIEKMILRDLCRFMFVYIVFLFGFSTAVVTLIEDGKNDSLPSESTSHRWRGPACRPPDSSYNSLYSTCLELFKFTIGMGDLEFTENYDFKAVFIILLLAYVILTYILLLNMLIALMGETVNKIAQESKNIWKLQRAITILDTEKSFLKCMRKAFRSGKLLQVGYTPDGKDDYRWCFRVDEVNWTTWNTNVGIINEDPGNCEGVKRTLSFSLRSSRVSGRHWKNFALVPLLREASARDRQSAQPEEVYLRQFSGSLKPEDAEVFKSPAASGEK
Procedure: FIG. 4 is a graph 400 of the time to peak rise of Ca^2+ for PLGA coated CMN, pure CAP and MNPs containing no CAP, according to embodiments described herein. HEK293 cells expressing TRPV1 channel protein (CAP receptor) grown on coverslips were loaded with Fura-2 AM (2 μM) for 40 minutes at room temperature. Cells were washed and then viewed with a Leica DMI3000 B inverted microscope coupled to a Polychrome V digital imaging system with Imago CCD camera. Cells were continuously superfused (22 degrees Celsius) with 2 mM Ca^2+ containing normal extracellular solution (NES). The Ca^2+ influx due to the addition of pure capsaicin (1 μM), CMN or PCMN (equivalent of 1 μM CAP), was observed and measured as a function of fluorescence.

COc1cc(CNC(=O)CCCC/C=C/C(C)C)ccc1O [pure CAP, capsaicin]
time of peak CAP concentration (cumulative release) ([1]; FIG. 3, 15 to 3000 minutes): around 500 minutes | course of CAP concentration after the peak ([1]; FIG. 3, up to 3000 minutes): steadily decrease | effect on high fat diet-induced weight gain in the absence of the TRPV1 protein in adipose tissue ([2]; absence of TRPV1 protein in adipose tissue): does not inhibit high fat diet-induced weight gain | effect on high fat diet-induced weight gain ([2]; mouse model systems): inhibit high fat diet-induced weight gain | time at which rise in Ca2+ concentration begins [3]: approximately 175 seconds | time of peak rise in Ca2+ concentration [3]: about 300 seconds
